{
  "source": "patent US5877199A",
  "about": "“Heterocyclic compounds, their preparation and their therapeutic use” (priority 1994, dated 1999)",
  "data": [
    {"molecular_target": "T1, m1 muscarinic receptors (Homo sapiens, UniProt P11229)", "T1 construct": "expressed in transfected cells; host or cells: CHO (Chinese Hamster Ovary) cells, membranes", "T1 sequence (P11229 1-460)": "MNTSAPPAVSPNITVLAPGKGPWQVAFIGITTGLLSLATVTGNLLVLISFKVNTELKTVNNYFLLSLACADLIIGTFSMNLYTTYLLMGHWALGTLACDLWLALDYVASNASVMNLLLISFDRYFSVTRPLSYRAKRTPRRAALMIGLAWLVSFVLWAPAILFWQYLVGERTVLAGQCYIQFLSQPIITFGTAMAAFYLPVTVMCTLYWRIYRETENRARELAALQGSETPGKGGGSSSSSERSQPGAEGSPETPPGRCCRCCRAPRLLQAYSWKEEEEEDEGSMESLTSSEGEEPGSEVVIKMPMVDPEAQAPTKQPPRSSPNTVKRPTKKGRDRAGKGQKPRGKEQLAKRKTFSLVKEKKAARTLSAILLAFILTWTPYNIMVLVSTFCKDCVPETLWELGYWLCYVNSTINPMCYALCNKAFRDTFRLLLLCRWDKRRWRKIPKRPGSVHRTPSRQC", "assay": "Effect on ACh binding: ACh inhibition of 3H-NMS binding (indirect assay) on CHO cell membranes", "details": "tested at 3 μg/ml; 0.15 nM 3H-NMS, 30 μM ACh, 0.2 mM GTP, pH 7.4, 30° C., two hours", "description": "The compounds of the present invention may be assayed for allosteric activity at m1 muscarinic receptors as described below, although the assays we describe are not necessarily exhaustive, and other assays may be employed, as desired, to establish allosterism.\nA suitable cell line is CHO (Chinese Hamster Ovary), which are readily engineered to express only one receptor sub-type.\nTo obtain the large amount of cell membranes required, plates of 530 cm^2 culture area were used. CHO cells which express m1, m2, m3 and m4 receptors were grown separately in MEM alpha medium containing 10% newborn calf serum and antibiotics. When cells reached confluence, they were washed twice with 10 ml of 20 mM HEPES containing 10 mM EDTA (pH 7.4), scraped into the same buffer and homogenized using a Polytron (trademark) homogenizer (setting 5-6 for 5 sec×2). Membrane pellets were obtained by centrifugation (40000×g, 10 min, 4° C.) and resuspended in 20 mM HEPES-0.1 mM EDTA (pH 7.4). Centrifugation and resuspension were repeated twice to wash the cell membranes. After measurement of membrane protein, the membranes (1 or 2 mg protein/ml) were stored at -70° C.\nWhile the direct assay measures ACh (=acetylcholine) binding only to the high affinity state, the indirect assay measures effects only at the low affinity state. This is achieved by including 0.2 mM GTP in the assay. In this assay a fixed concentration of ^3 H-NMS (roughly the Kd value) is incubated in the absence and presence of a fixed concentration of ACh (at about the IC50 value) and the effects of three concentrations of test agent are measured, again in the absence and presence of ACh.\nCalculating the effects on ^3 H-NMS binding alone is as follows: binding in the presence of the agent is expressed as a percentage of binding in its absence and, if the effect is inhibitory, an IC50 is estimated graphically. The assay also contains a single high concentration of ^3 H-NMS (4 nM, about 30 times the Kd) which provides an estimate of Bmax (i.e. maximum binding).\nExpressing the effect on cold ACh binding will be explained with reference to FIGS. 1a, b and c. These figures show theoretical data and the effects of the transformations described below. In FIGS. 1a and 1b ^3 H-NMS and cold ACh are present at their Kd concentrations; in FIG. 1a the agent has a negative allosteric effect on ^3 H-NMS, while in FIG. 1b it has a positive allosteric effect on ^3 H-NMS. The left panels show the amount of ^3 H-NMS specifically bound in the assay. If the affinity of ACh is reduced by the test agent, as shown in the top panels of FIGS. 1a and 1b, the inhibition by ACh will decrease, but the counts recovered will also depend on the effect of the agent on ^3 H-NMS binding alone. To calculate the effect on ACh binding the inhibitory effect of ACh is first calculated as a percent of its own control in the absence of ACh. Next it is assumed that fractional inhibition is the same as tractional occupancy, and inhibition in the presence of agent is expressed as a percentage of inhibition in the absence of agent. The effects of these transformations are shown in the centre panels. Expressing inhibition by ACh in the presence of agent as a percentage of inhibition in the absence of agent allows the effect of the agent on cold ACh binding to be seen on the same scale as the effect on ^3 H-NMS and ^3 H-ACh binding and is generally preferred.\nIf the concentration of ^3 H-NMS used in the indirect assay is around the Kd value or less, the transformation described above provides a qualitative and semi-quantitative measure of the agent's effect. If a higher concentration of ^3 H-NMS is used, or if the agent has a positive allosteric effect on ^3 H-NMS, then the results of this transformation may be misleading. […] It is assumed that ACh binds to a single affinity state i.e. that its inhibition curve has a slope of 1, and so an IC50 is calculated from the percentage inhibition of control binding. […]", "values": [
      {"molecule": "Cc1cc(CC(=O)O)c([S+](C)[O-])c2c1c1ccccc1n2Cc1ccccc1", "note": "(centres unmarked) [Example 200, (9-Benzyl-1-methylsulfinyl-4-methylcarbazol-2-yl)acetic Acid]", "Effect on ACh Binding": 3.59},
      {"molecule": "Cc1cc(CC(=O)O)c(S(C)(=O)=O)c2c1c1ccccc1n2Cc1ccccc1", "note": "[Example 202, (9-Benzyl-1-methylsulfonyl-4-methylcarbazol-2-yl)acetic Acid]", "Effect on ACh Binding": 2.66},
      {"molecule": "Cc1cc(CC(=O)O)c(SCc2ccccc2)c2c1c1ccccc1n2C", "note": "[Example 206, (1-Benzylthio-4,9-dimethylcarbazol-2-yl)acetic Acid]", "Effect on ACh Binding": 2.13},
      {"molecule": "CCCSc1c(CC(=O)O)cc(C)c2c3ccccc3n(C)c12", "note": "[Example 210, (4,9-Dimethyl-1-propylthiocarbazol-2-yl)acetic Acid]", "Effect on ACh Binding": 2.03},
      {"molecule": "CSc1c(CC(=O)O)cc(C)c2c3ccccc3n(CCc3ccccc3)c12", "note": "[Example 212, [4-Methyl-1-methylthio-9-(2-phenethyl)carbazol-2-yl]acetic Acid]", "Effect on ACh Binding": 4.93},
      {"molecule": "CSc1c(CC(=O)O)cc(C)c2c3ccccc3n(CCCc3ccccc3)c12", "note": "[Example 214, [4-Methyl-1-methylthio-9-(3-phenylpropyl)carbazol-2-yl]acetic Acid]", "Effect on ACh Binding": 4.34},
      {"molecule": "CCCSc1c(CC(=O)O)cc(C)c2c3ccccc3n(Cc3ccccc3)c12", "note": "[Example 217, (9-Benzyl-4-methyl-1-n-propylthiocarbazol-2-yl)acetic Acid]", "Effect on ACh Binding": 3.99},
      {"molecule": "Cc1cc(CC(=O)O)c(SC(C)C)c2c1c1ccccc1n2Cc1ccccc1", "note": "[Example 218, (9-Benzyl-4-methyl-1-i-propylthiocarbazol-2-yl)acetic Acid]", "Effect on ACh Binding": 4.91},
      {"molecule": "CSc1c(CC(=O)O)cc(C)c2c3ccccc3n(CCc3cccc(Cl)c3)c12", "note": "[Example 229, {9-[2-(3-Chlorophenyl)ethyl]-4-methyl-1-methylthiocarbazol-2-yl}acetic Acid]", "Effect on ACh Binding": 5.79},
      {"molecule": "CSc1c(CC(=O)O)cc(C(F)(F)F)c2c3ccccc3n(Cc3ccccc3)c12", "note": "[Example 231, (9-Benzyl-1-methylthio-4-trifluoromethyl carbazol-2-yl)acetic Acid]", "Effect on ACh Binding": 3.78},
      {"molecule": "CSc1c(CC(=O)O)ccc2c1c1ccccc1n2Cc1ccccc1", "note": "[Example 233, (9-Benzyl-4-methylthiocarbazol-3-yl)acetic Acid]", "Effect on ACh Binding": 2.26},
      {"molecule": "CC(C)Sc1c(CC(=O)O)cc(C(C)C)c2c3ccccc3n(Cc3ccccc3)c12", "note": "[Example 235, (9-Benzyl-4-isopropyl-1-isopropylthiocarbazol-2-yl)acetic Acid]", "Effect on ACh Binding": 2.82}
    ]},
    {"tested_on": "M2 muscarinic receptors in the heart", "assay": "not given", "details": "Tucek et al. 1993; cited from earlier work", "values": [
      {"molecule": "C=CC[N@@+]12CC[C@@]34c5ccccc5N5/C=C6/[C@H]7C[C@H]8[C@@]9(CC[N@@+]8(CC=C)C/C7=C/CO)c7ccccc7N(/C=C(/[C@@H](C[C@@H]31)/C(=C\\CO)C2)[C@H]54)[C@@H]69", "note": "[alcuronium]", "effect on affinity of M2 muscarinic receptors for NMS": "allosterically increases the affinity of M2 muscarinic receptors in the heart for NMS"}
    ]},
    {"tested_on": "heart receptors", "assay": "not given", "details": "Riker and Wescoe 1951; cited from earlier work", "values": [
      {"molecule": "CC[N+](CC)(CC)CCOc1cccc(OCC[N+](CC)(CC)CC)c1OCC[N+](CC)(CC)CC", "note": "[gallamine]", "action on heart receptors": "negative action on heart receptors"}
    ]},
    {"tested_on": "heart receptors", "assay": "not given", "details": "subsequently established; cited from earlier work", "values": [
      {"molecule": "CC[N+](CC)(CC)CCOc1cccc(OCC[N+](CC)(CC)CC)c1OCC[N+](CC)(CC)CC", "note": "[gallamine]", "competitive antagonism for acetylcholine": "not a competitive antagonist for acetylcholine"}
    ]},
    {"tested_on": "muscarinic receptors", "assay": "not given", "details": "reported; cited from earlier work", "values": [
      {"molecule": "COc1cc2c3cc1Oc1cc(ccc1O)C[C@@H]1c4c(cc(OC)c(O)c4Oc4ccc(cc4)C[C@@H]3N(C)CC2)CC[N+]1(C)C", "note": "[Tubocurarine]", "allosteric effects on antagonist binding": "negative allosteric effects on antagonist binding"},
      {"molecule": "batrachotoxin", "allosteric effects on antagonist binding": "negative allosteric effects on antagonist binding"}
    ]}
  ]
}
